Experimental data as given in publication PMC10615177 (ACS infectious diseases, 2023).
Several values for one entry are separate records, joined by “and”; a condition that tells them apart may be missing. Identical values can stand only once. Like-named read-outs stand apart in the source and are kept apart here.

Legend:
M. tuberculosis H37Rv = M. tuberculosis H37Rv growth inhibition; assay type: cell-based, Mycobacterium tuberculosis
M. tuberculosis Erdman = M. tuberculosis Erdman growth inhibition; assay type: cell-based, Mycobacterium tuberculosis
[1] = test system: Plasmodium falciparum asexual blood stages; experiment: P. falciparum asexual blood stage; assay type: cell-based; settings: read-out: PfABS IC50 (μM ± S.E.); asexual blood stages
[2] = DSC of DMPC bilayers with inhibitor; assay type: physicochemical; settings: for Tm (main transition) / ΔH / ΔT1/2: 10 wt % inhibitor, PBS pH 7.4, heating; for Decrease of Tm compared to DMPC without inhibitor / Broadening of main transition peak ΔΤ1/2 compared to pure DMPC: heating
[3] = test system: T. cruzi Dm28c epimastigotes; experiment: T. cruzi epimastigote growth inhibition; assay type: cell-based, Trypanosoma cruzi; settings: read-out: T. cruzi IC50 (EPI); epimastigotes
[4] = test system: M. abscessus rough variant; experiment: microbe, parasite or virus in culture; assay type: cell-based
[5] = test system: L. donovani promastigotes; experiment: L. donovani promastigote growth inhibition; assay type: cell-based, Leishmania donovani; settings: read-out: L. donovani IC50; promastigotes
[6] = test system: L. mexicana promastigotes; experiment: L. mexicana promastigote growth inhibition; assay type: cell-based, Leishmania mexicana; settings: for IC50: read-out: L. mexicana IC50, promastigotes
E. coli = E. coli growth inhibition; assay type: cell-based, Escherichia coli; settings: for IC50: read-out: Ec IC50
M. smegmatis = M. smegmatis cell growth inhibition; assay type: cell-based, Mycobacterium smegmatis; settings: read-out: Ms IC50; M. smegmatis
[7] = DSC of DSPG bilayers with inhibitor; assay type: physicochemical; settings: for Tm (main transition) / ΔH / ΔT1/2: 10 wt % inhibitor, PBS pH 7.4, heating; for Broadening of main transition peak ΔΤ1/2 compared to pure DSPG / Decrease of Tm compared to DSPG alone: heating
[8] = test system: M. abscessus smooth variant; experiment: microbe, parasite or virus in culture; assay type: cell-based
[9] = biological target: M. tuberculosis MmpL3 (MtMmpL3) (Mycobacterium tuberculosis, UniProt P9WJV5); experiment: Surface plasmon resonance binding to MmpL3; settings: for koff: 1:1 Langmuir binding model
Chain of M. tuberculosis MmpL3 (MtMmpL3) (P9WJV5 whole entry): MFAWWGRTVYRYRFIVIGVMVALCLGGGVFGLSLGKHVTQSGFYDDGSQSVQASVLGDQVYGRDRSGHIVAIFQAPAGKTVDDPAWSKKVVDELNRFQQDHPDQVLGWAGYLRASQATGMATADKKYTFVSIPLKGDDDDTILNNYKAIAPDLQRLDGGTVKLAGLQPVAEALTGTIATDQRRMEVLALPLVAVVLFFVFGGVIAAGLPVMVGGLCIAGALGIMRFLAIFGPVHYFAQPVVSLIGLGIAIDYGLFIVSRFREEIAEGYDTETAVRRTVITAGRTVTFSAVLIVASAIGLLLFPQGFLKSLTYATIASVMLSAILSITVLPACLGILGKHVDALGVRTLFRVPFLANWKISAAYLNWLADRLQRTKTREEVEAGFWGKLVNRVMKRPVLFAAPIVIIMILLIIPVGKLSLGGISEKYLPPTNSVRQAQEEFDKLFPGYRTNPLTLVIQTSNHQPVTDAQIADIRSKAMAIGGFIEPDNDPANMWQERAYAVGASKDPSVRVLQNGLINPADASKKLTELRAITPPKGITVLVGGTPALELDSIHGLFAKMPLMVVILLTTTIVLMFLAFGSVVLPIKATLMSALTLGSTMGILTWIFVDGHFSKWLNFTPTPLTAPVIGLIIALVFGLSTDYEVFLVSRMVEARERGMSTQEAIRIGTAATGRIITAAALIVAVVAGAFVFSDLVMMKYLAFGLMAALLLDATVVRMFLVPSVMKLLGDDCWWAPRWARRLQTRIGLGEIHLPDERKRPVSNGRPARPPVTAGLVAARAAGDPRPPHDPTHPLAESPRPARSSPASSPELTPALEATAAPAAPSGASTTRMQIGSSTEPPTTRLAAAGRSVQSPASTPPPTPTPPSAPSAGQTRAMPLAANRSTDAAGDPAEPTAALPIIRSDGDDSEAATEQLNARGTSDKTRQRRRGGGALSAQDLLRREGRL

[10] = test system: T. brucei bloodstream forms; experiment: T. brucei bloodstream form growth inhibition; assay type: cell-based, Trypanosoma brucei; settings: read-out: T. brucei IC50; bloodstream forms
U2OS host cells = experiment: U2OS host cell growth inhibition; settings: read-out: T. cruzi CC50 (U20S)
M. tuberculosis HN878 = M. tuberculosis HN878 growth inhibition; assay type: cell-based, Mycobacterium tuberculosis; settings: for IC50: read-out: Mtb HN878 IC50, dose-response curves; for Mtb HN878 MIC: visual inspection
[11] = test system: HepG2 (human hepatocellular carcinoma) cells; experiment: HepG2 cell line viability
[12] = test system: T. cruzi Dm28c intracellular amastigotes; experiment: T. cruzi intracellular amastigote inhibition; assay type: cell-based, Trypanosoma cruzi; settings: read-out: T. cruzi IC50 (PAR); intracellular amastigotes in U2OS host cells
Bacillus subtilis = experiment: B. subtilis growth inhibition; assay type: cell-based; settings: read-out: Bs IC50
[13] = Human liver microsome stability; settings: human liver microsomes
[14] = Mice liver microsome stability; settings: mice microsomes
[15] = Rat liver microsome stability; settings: rat liver microsomes
[16] = read-out: KD, 1:1 model, 1:1 binding model, from ratio of rate constants
[17] = read-out: KD, 2-state, two-state model, from rate constants

SMILES	Mtb H37Rv MIC (M. tuberculosis H37Rv)	Mtb Erdman MIC (M. tuberculosis Erdman)	Tm (main transition) [2]	ΔH [2]	ΔT1/2 [2]	Decrease of Tm compared to DMPC without inhibitor [2]	IC50 [3]	Ma(R) MIC [4]	IC50 [5]	IC50 (M. smegmatis)	Tm (main transition) [7]	ΔH [7]	ΔT1/2 [7]	Broadening of main transition peak ΔΤ1/2 compared to pure DSPG [7]	Decrease of Tm compared to DSPG alone [7]	Ma(S) MIC [8]	koff [9]	Kd [9, 16]	Kd [9, 17]	ka1 ([9]; two-state model)	also measured
CCCC1(NCCNCC=C(C)CCC=C(C)C)C2CC3CC(C2)CC1C3 (centres unmarked) [Compound 8d, N-(3,7-dimethylocta-2,6-dien-1-yl)-N´-(2-propyladamantan-2-yl)ethane-1,2-diamine]	13 µM	13 µM	17.5 °C	5.4 kcal/mol	2.2 °C	~6 °C	2100 ± 900 nM	10 µM	2000 ± 200 nM	4300 ± 800 nM	50.0 °C	11.5 kcal/mol	1.1 °C	0.2–1.6 °C	3–4 °C	10 µM	0.5403 s⁻¹	91000 nM	106000 nM	7325 M⁻¹ s⁻¹	IC50 [1]: 0.53 ± 0.22 µM; Less active than 8b/SQ109, L. mexicana [6]: ~ 4 fold; IC50 [6]: 1940 nM and 1900 nM; IC50 (E. coli): 7600 nM; ka2 ([9]; two-state model): 0.00968 s⁻¹; kd1 ([9]; two-state model): 0.9488 s⁻¹; kd2 ([9]; two-state model): 0.04246 s⁻¹; IC50 [10]: 880 ± 200 nM; CC50 (U2OS host cells): 1600 ± 100 nM; IC50 (M. tuberculosis HN878): 2600 ± 1000 nM; Mtb HN878 MIC (M. tuberculosis HN878): 3 µM; HepG2 % viability @ 20 μM [11]: 100%; IC50 [12]: 600 ± 500 nM
CCCCC1(NCCNCC=C(C)CCC=C(C)C)C2CC3CC(C2)CC1C3 (centres unmarked) [Compound 8e, N-(3,7-dimethylocta-2,6-dien-1-yl)-N´-(2-butyladamantan-2-yl)ethane-1,2-diamine]	12.9 µM	9.7 µM	15.7 °C	5.83 kcal/mol	2.2 °C	~7.8 °C	2500 ± 1000 nM	6.2 µM	4000 ± 400 nM	2500 nM	49.0 °C	9.2 kcal/mol	3.6 °C	2.7 °C	~ 5 °C	6.2 µM	0.3888 s⁻¹	97000 nM	108000 nM	5151 M⁻¹ s⁻¹	IC50 [1]: 0.27 ± 0.04 µM; IC50 (E. coli): 7800 nM; IC50 (Bacillus subtilis): 540 nM; Activity against M. abscessus higher than SQ109 [8]: 4–8 fold; MIC against M. abscessus [8]: 5.8 to 6.2 µM; ka2 ([9]; two-state model): 0.009897 s⁻¹; kd1 ([9]; two-state model): 0.7008 s⁻¹; kd2 ([9]; two-state model): 0.03763 s⁻¹; IC50 [10]: 370 ± 20 nM; CC50 (U2OS host cells): 1700 ± 1000 nM; IC50 (M. tuberculosis HN878): 2500 ± 200 nM; Mtb HN878 MIC (M. tuberculosis HN878): 3 µM; HepG2 % viability @ 2 μM ([11]; 2 μM): 83%; HepG2 % viability @ 20 μM [11]: 50%; IC50 [12]: 840 ± 500 nM
CCCCCCC1(NCCNCC=C(C)CCC=C(C)C)C2CC3CC(C2)CC1C3 (centres unmarked) [Compound 8f, N-(3,7-dimethylocta-2,6-dien-1-yl)-N´-(2-hexyladamantan-2-yl)ethane-1,2-diamine]	12 µM	12 µM	13.8 °C	5.88 kcal/mol	5.1 °C	~9.7 °C	8200 ± 400 nM	12 µM	8800 ± 400 nM	4700 nM	49.1 °C	8.75 kcal/mol	1.7 °C	0.2–1.6 °C	~ 5 °C	12 µM	0.2964 s⁻¹	67000 nM	81000 nM	4642 M⁻¹ s⁻¹	Broadening of main transition peak ΔΤ1/2 compared to pure DMPC [2]: 4.4 °C; IC50 (E. coli): 9200 nM; IC50 (Bacillus subtilis): 1000 nM; ka2 ([9]; two-state model): 0.008637 s⁻¹; kd1 ([9]; two-state model): 0.4552 s⁻¹; kd2 ([9]; two-state model): 0.03992 s⁻¹; IC50 [10]: 980 ± 90 nM; CC50 (U2OS host cells): 4100 ± 1000 nM; IC50 (M. tuberculosis HN878): 3400 ± 600 nM; Mtb HN878 MIC (M. tuberculosis HN878): 3 µM; IC50 [12]: 1300 ± 70 nM
CC(C)=CCCC(C)=CCNCCNC1(Cc2ccccc2)C2CC3CC(C2)CC1C3 (centres unmarked) [Compound 8g, N-(3,7-dimethylocta-2,6-dien-1-yl)-N´-(2-benzyladamantan-2-yl)ethane-1,2-diamine]	6.1 µM	6.1 µM	16.6 °C	5.16 kcal/mol	10 °C	~6.9 °C	6600 ± 1000 nM	5.8 µM	6100 ± 60 nM	6000 nM	48.0 °C	13.3 kcal/mol	1.7 °C	0.2–1.6 °C	~ 5 °C	5.8 µM	0.3999 s⁻¹	69000 nM	74000 nM	6462 M⁻¹ s⁻¹	Broadening of main transition peak ΔΤ1/2 compared to pure DMPC [2]: 9.6 °C; IC50 (E. coli): 130000 nM; IC50 (Bacillus subtilis): 590 nM; Activity against M. abscessus higher than SQ109 [8]: 4–8 fold; MIC against M. abscessus [8]: 5.8 to 6.2 µM; ka2 ([9]; two-state model): 0.006528 s⁻¹; kd1 ([9]; two-state model): 0.5715 s⁻¹; kd2 ([9]; two-state model): 0.03248 s⁻¹; IC50 [10]: 850 ± 90 nM; CC50 (U2OS host cells): 2000 ± 400 nM; Less activity than SQ109 against M. tuberculosis (M. tuberculosis HN878; MtbHN878, MtErdman and MtH37Rv): 2–4 fold; IC50 (M. tuberculosis HN878): 2000 ± 500 nM; Mtb HN878 MIC (M. tuberculosis HN878): 1.6 µM; HepG2 % viability @ 20 μM [11]: 100%; IC50 [12]: 920 ± 60 nM
CC(C)=CCCC(C)=CCNCCNC1(c2ccccc2)C2CC3CC(C2)CC1C3 (centres unmarked) [Compound 8h, N-(3,7-dimethylocta-2,6-dien-1-yl)-N´-(2-phenyl-adamantan-2-yl)ethane-1,2-diamine]	13 µM	13 µM	14.7 °C	7.12 kcal/mol	2.7 °C	~8.8 °C	7300 ± 2000 nM	6 µM	1400 ± 1000 nM	5800 nM	48.6 °C	13.2 kcal/mol	5.3 °C	4.4 °C	~ 5 °C	12 µM	0.465 s⁻¹	115000 nM	136000 nM	25900 M⁻¹ s⁻¹	IC50 [1]: 0.42 ± 0.09 µM; Intrinsic clearance rate (CLint) relative to SQ109 [13]: about twice as large; Metabolism relative to SQ109 [13]: more rapidly metabolized; Ec IC50 (E. coli): No inhibition; % remanent at 60 minutes relative to SQ109 [14]: same % remanent as SQ109 (8a); Intrinsic clearance rate (CLint) relative to SQ109 [14]: essentially the same; ka2 ([9]; two-state model): 0.00526 s⁻¹; kd1 ([9]; two-state model): 4.085 s⁻¹; kd2 ([9]; two-state model): 0.03247 s⁻¹; IC50 [10]: 1300 ± 300 nM; CC50 (U2OS host cells): 3500 ± 1000 nM; IC50 (M. tuberculosis HN878): 2300 ± 200 nM; Mtb HN878 MIC (M. tuberculosis HN878): 1.6 µM; HepG2 % viability @ 20 μM [11]: 100%; IC50 [12]: 600 ± 40 nM; Intrinsic clearance rate (CLint) relative to SQ109 [15]: about twice as large; Metabolism relative to SQ109 [15]: more rapidly metabolized
CC(C)=CCCC(C)=CCNCCNC(C)(C)C12CC3CC(CC(C3)C1)C2 [Compound 12, N-(3,7-dimethylocta-2,6-dien-1-yl)-N´-(2-(adamantan-1-yl)propan-2-yl)ethane-1,2-diamine]	13 µM	13 µM	19.8 °C	4.25 kcal/mol	4.1 °C	3–4 °C	2400 ± 700 nM	12.9 µM	2300 ± 100 nM	15000 ± 2000 nM	49.8 °C	13.3 kcal/mol	2.4 °C	0.2–1.6 °C	3–4 °C	12.9 µM	0.6646 s⁻¹	106000 nM	120000 nM	7245 M⁻¹ s⁻¹	IC50 [1]: 0.77 ± 0.1 µM; IC50 [6]: 4700 ± 200 nM; IC50 (E. coli): 8900 nM; ka2 ([9]; two-state model): 0.007539 s⁻¹; kd1 ([9]; two-state model): 1.05 s⁻¹; kd2 ([9]; two-state model): 0.03558 s⁻¹; IC50 [10]: 1400 ± 30 nM; CC50 (U2OS host cells): 1400 ± 200 nM; IC50 (M. tuberculosis HN878): 3400 ± 600 nM; Mtb HN878 MIC (M. tuberculosis HN878): 3 µM; HepG2 % viability @ 20 μM [11]: 100%; IC50 [12]: 560 ± 900 nM
